Measurements from PMC10818931, “In Vitro Evaluation of Drug–Drug Interaction Potential of Epetraborole, a Novel Bacterial Leucyl-tRNA Synthetase Inhibitor” (Pharmaceuticals, 2024).

Assays:
OAT1 = target: T1, OAT1 (Homo sapiens, UniProt Q4U2R8); test: Uptake transporter inhibition in transfected HEK 293 or MDCK cells; type: in vitro ADME; settings: read-out: as an Inhibitor, IC50
T1 construct: host or cells: MDCK
T1 sequence (Q4U2R8 1-563): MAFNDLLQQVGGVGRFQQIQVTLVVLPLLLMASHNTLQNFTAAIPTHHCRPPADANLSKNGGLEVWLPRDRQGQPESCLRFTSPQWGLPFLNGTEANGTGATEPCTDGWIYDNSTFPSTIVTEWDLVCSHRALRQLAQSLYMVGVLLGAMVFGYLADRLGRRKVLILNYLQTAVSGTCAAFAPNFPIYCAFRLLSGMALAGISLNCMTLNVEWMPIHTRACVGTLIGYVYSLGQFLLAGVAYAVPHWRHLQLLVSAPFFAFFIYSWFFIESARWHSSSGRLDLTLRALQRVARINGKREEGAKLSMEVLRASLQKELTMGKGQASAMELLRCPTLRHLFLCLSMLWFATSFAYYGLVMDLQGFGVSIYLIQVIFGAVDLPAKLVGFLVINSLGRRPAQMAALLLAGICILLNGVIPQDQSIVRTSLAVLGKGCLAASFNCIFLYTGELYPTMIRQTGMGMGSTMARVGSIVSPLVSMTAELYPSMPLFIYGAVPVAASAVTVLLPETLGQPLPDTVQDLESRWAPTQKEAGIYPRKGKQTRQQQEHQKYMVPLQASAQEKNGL
Description: (§1) Cell monolayers were preincubated (37 °C) for 15 to 30 min in a transport medium containing the target concentration of EBO or a specific inhibitor without substrate. Following the removal of preincubation solutions, appropriate working solutions containing EBO at the target concentration plus the probe substrate were added to the wells in triplicate. Separate sets of triplicate wells were designated for probe substrate only and probe substrate plus the specific inhibitors, to determine the maximal uptake rate and maximal inhibition of uptake, respectively. After incubation at 37 °C for each transporter, the working solution was removed from each well and the experiment was stopped by washing three times with cold (4 °C) DPBS. Depending on the substrate label, cells were either lysed for the analysis of total radioactivity (liquid scintillation counter) or LC-MS/MS methods. For measuring relative fluorescence (FLUOstar Galaxy, Cary, NC, USA), cells were not lysed.

OATP1B1 = target: T2, OATP1B1 (Homo sapiens, UniProt Q9Y6L6); test: as above; type: in vitro ADME
T2 construct: host or cells: MDCK
T2 sequence (Q9Y6L6 1-691): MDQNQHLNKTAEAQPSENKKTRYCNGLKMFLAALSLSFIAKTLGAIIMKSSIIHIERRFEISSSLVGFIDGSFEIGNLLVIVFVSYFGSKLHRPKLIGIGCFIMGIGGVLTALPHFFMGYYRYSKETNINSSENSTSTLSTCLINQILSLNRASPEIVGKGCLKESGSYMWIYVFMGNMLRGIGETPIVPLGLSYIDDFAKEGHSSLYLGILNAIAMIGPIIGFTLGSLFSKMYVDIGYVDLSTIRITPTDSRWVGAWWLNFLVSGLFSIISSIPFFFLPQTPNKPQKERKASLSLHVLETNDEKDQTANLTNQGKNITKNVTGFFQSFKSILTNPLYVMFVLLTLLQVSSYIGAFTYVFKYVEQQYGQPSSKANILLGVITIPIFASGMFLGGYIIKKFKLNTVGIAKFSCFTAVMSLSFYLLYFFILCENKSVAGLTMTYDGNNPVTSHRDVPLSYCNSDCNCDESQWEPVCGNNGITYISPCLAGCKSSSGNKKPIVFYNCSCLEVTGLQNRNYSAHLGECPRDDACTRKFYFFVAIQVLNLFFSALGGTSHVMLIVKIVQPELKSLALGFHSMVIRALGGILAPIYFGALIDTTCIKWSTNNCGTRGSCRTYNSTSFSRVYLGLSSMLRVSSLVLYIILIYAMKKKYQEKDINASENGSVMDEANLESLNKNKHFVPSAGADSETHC
Description: as §1

CYP3A4 = test: CYP mRNA induction in plated human hepatocytes (qPCR); settings: for Apparent Emax: EBO 0.3–100 µM, M3 1–250 µM; for EC50 at 2 days: human
Description: (§2) The induction potential of EBO and M3 on CYP1A2, CYP2B6, and 3A4 was evaluated by incubating the test articles with plated human hepatocytes from 3 individual donors (GKJ, ZEY, WKF) in triplicate according to WuXi AppTec (Cranbury, NJ, USA) SOP.
(§3) At the end of incubation, the RNA of human hepatocytes was isolated and the mRNA expression levels of CYP 1A2, 2B6, and 3A4 were evaluated by using real-time polymerase chain reaction (qPCR) after being reverse-transcribed (RT) to cDNA following manufacturer’s instruction (thermos Fisher Scientific (Waltham, MA, USA). On the last dosing day with EBO or M3, incubation samples were extracted in triplicate by the addition of ice-cold quench solutions at 0, 0.5, 1, 2, 4, 6, and 24 h after dosing and the extracted samples were analyzed using LC-MS/MS to determine the EBO or M3 concentration in each sample.

CYP1A2 = test: as above; settings: for Apparent Emax: CYP1A2 mRNA, EBO 0.3–100 µM, M3 1–250 µM
Description: as §2, §3

CYP2B6 = test: as above; settings: for Apparent Emax: CYP2B6 mRNA, EBO 0.3–100 µM, M3 1–250 µM
Description: as §2, §3

[1] = at 100 µM, EBO 2 out of 3 donors, M3 1 out of 3 donors

Structure (SMILES)	IC50 (OAT1) [µM]	Apparent Emax (CYP3A4; CYP3A4 mRNA, donor one) [Fold]	Apparent Emax (CYP3A4; CYP3A4 mRNA, donor three) [Fold]	Apparent Emax (CYP3A4; CYP3A4 mRNA, donor two) [Fold]	CYP3A4 mRNA expression induction (CYP3A4; [1])	Apparent Emax (CYP1A2; donor one) [Fold]	Apparent Emax (CYP1A2; donor three) [Fold]	Apparent Emax (CYP1A2; donor two) [Fold]	Apparent Emax (CYP2B6; donor one) [Fold]	Apparent Emax (CYP2B6; donor three) [Fold]	Apparent Emax (CYP2B6; donor two) [Fold]	also measured
NC[C@H]1OB(O)c2c(OCCCO)cccc21 [EBO, Epetraborole]	> 1000	>2.98	<2	>2.93	~ 3 fold	<2	<2	<2	<2	<2	>2.18	inhibition at 500 µM (OATP1B1; human, HEK 293 or MDCK cells transfected with OATP1B1, at 500 µM): 25%; Inducer of CYP3A4 (in words) (CYP3A4; hepatocytes): weak inducer; EC50 at 2 days (CYP3A4; plated human hepatocytes): > 100 µM; EC50 (CYP3A4; read-out: Apparent EC50, CYP3A4 mRNA, donor one): > 100 µM; Inducer of CYP1A2 mRNA (in words) (CYP1A2; hepatocytes): not an inducer; CYP2B6 mRNA expression induction (CYP2B6; at 100 µM, 1 out of 3 donors): 2.18 fold; Inducer of CYP2B6 (in words) (CYP2B6; hepatocytes): weak inducer; EC50 at 2 days (CYP2B6; human, plated human hepatocytes): > 100 µM
NC[C@H]1OB(O)c2c(OCCC(=O)O)cccc21 [M3]	> 250	2.16	<2	<2	2.19 fold	<2	<2	<2	<2	<2	<2	IC50 (OATP1B1; read-out: as an Inhibitor, IC50): > 250 µM; CYP3A4 mRNA expression induction (CYP3A4; at 250 µM, 1 out of 3 donors): 2.13 fold; EC50 at 2 days (CYP3A4): 32.4 µM
